Key:
Assay in all cases: relative viability (nuclei count vs DMSO), 5 days (fraction); higher = more cells survive
[1] = compound: COc1cccc2c1C(=O)c1c(O)c3c(c(O)c1C2=O)C[C@@](O)(C(=O)CO)C[C@@H]3O[C@H]1C[C@H](N)[C@H](O)[C@H](C)O1 [Doxorubicin] + Nc1ncn([C@H]2C[C@H](O)[C@@H](CO)O2)c(=O)n1 [Decitabine] (partner 2 µM)
In short: (§1)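 Lung cancer cell lines, seeded in 1536-well plates, were treated the following day by pin tool with a single drug or with five library-drug doses (not always all listed) in √10 steps on top of a fixed anchor-drug dose. Cells were fixed and nuclei stained in one step after 5 days, and nuclei were counted. Relative viability is the nuclei count for treated wells divided by that for vehicle wells, reported as medians of duplicate plates.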

[2] = compound: COC1=C(C=C(C=C1)C2=CC3=NC=CN3C(=N2)NC4=C(C=CC=N4)C(=O)N)OC [BAY61-3606] + Cc1nc(Nc2ncc(C(=O)Nc3c(C)cccc3Cl)s2)cc(N2CCN(CCO)CC2)n1 [Dasatinib] (partner 0.075 µM)
In short: as §1

[3] = compound: COc1cccc2c1C(=O)c1c(O)c3c(c(O)c1C2=O)C[C@@](O)(C(=O)CO)C[C@@H]3O[C@H]1C[C@H](N)[C@H](O)[C@H](C)O1 [Doxorubicin] + Cc1nc(NC(=O)N2CCC[C@H]2C(N)=O)sc1-c1ccnc(C(C)(C)C(F)(F)F)c1 [Alpelisib] (partner 2 µM)
In short: as §1

[4] = compound: COc1cccc2c1C(=O)c1c(O)c3c(c(O)c1C2=O)C[C@@](O)(C(=O)CO)C[C@@H]3O[C@H]1C[C@H](N)[C@H](O)[C@H](C)O1 [Doxorubicin] + CCNC(=O)c1noc(-c2cc(C(C)C)c(O)cc2O)c1-c1ccc(CN2CCOCC2)cc1 [Luminespib] (partner 0.01 µM)
In short: as §1

UMC-11
relative viability ([1]; first compound 0.001 µM): 0.641
relative viability ([1]; first compound 0.003162 µM): 0.497
relative viability ([1]; first compound 0.01 µM): 0.619
relative viability ([1]; first compound 0.03162 µM): 0.385
relative viability ([1]; first compound 0.1 µM): 0.41
relative viability ([2]; first compound 0.02 µM): 0.464
relative viability ([2]; first compound 0.06325 µM): 0.587
relative viability ([2]; first compound 0.2 µM): 0.568
relative viability ([2]; first compound 0.6325 µM): 0.606
relative viability ([2]; first compound 2 µM): 0.524
relative viability ([3]; first compound 0.001 µM): 1.11
relative viability ([3]; first compound 0.003162 µM): 1.17
relative viability ([3]; first compound 0.01 µM): 0.958
relative viability ([3]; first compound 0.03162 µM): 0.693
relative viability ([3]; first compound 0.1 µM): 0.968
relative viability ([4]; first compound 0.001 µM): 0.998
relative viability ([4]; first compound 0.003162 µM): 1.12
relative viability ([4]; first compound 0.01 µM): 0.943
relative viability ([4]; first compound 0.03162 µM): 0.642
relative viability ([4]; first compound 0.1 µM): 0.601
